Like-named read-outs stand apart in the source and are kept apart here.
Assays:
[1] = tested on: human colon cancer (COL-1); type: in vivo, mouse; conditions: for TGIR (tumor growth inhibition rate, maximum) / minTx (relative tumor volume when reduced to the minimum): COL-1 s.c. in nude mice, at MTD; for TGIR (tumor growth inhibition rate, maximum): TGIR=(1-Tx/Cx)×100, maximum during about 3 weeks; for minTx (relative tumor volume when reduced to the minimum): minimum throughout the test period
Description: (2) Method for measuring the antitumor effect on human colon cancer (COL-1)
COL-1, a human colon cancer, was transplanted subcutaneously into nude mice. When the tumor had grown to a volume of about 100 mm^3, the nude mice were divided into groups of 5 animals so that the average tumor volumes of respective groups were equalized. The respective spicamycin derivatives were administered to test groups at their MTDs, while physiological saline (solvent) containing 1% DMSO and 1% Cremophor EL® was administered to the control group. […] RV is expressed as RV =Vn/Vo where Vn is the tumor volume on day n and Vo is the initial tumor volume at the time treatment was commenced.

in vivo = experiment: in vivo; design: species or system nude mice (BALB/c nu/nu); conditions: mouse, in vivo; intravenous, continuous 5 days, nude mice; maximum dose at which no animal was dead within 2 weeks; read-out: Maximum tolerated dose
Description: (1) Measurement of maximum tolerated dose (MTD) of the spicamycin derivatives in nude mice
The spicamycin derivative was dissolved in dimethylsulfoxide (DMSO) and Cremophor EL® at the same volume as DMSO was added. Physiological saline was added so that the concentration of DMSO and Cremophor EL® was finally adjusted to 1%, respectively, and thus injection liquids of spicamycin derivative in a variety of concentrations were prepared. […] The maximum dose at which no animal was dead was defined as the MTD of the respective derivatives.

Row | SMILES | TGIR (tumor growth inhibition rate, maximum) [1] | MTD at 336 h (in vivo) [mg/kg/day] | minTx (relative tumor volume when reduced to the minimum) [1] | Therapeutic index ([1]; mouse, in vivo) | Therapeutic index ([1]; /minimum effective dose (effective: TGIR≥50))
1 | CCCCCCCCCCCCCC[C@@H](OC(C)=O)C(=O)NCC(=O)NC1C(O)C(O)C(Nc2ncnc3[nH]cnc23)OC1C(O)CO (stereo partly drawn) [SPK198, 6-[4'-N-(N'-(R) -2-acetoxyhexadecanoylglycyl)-spicaminyl-amino]purine] | 82 | 1.5 |  |  | 
2 | O=C(CCCCCCCCCCCCCl)NCC(=O)N[C@@H]1[C@@H](O)[C@@H](O)[C@@H](Nc2ncnc3[nH]cnc23)O[C@H]1C(O)CO (stereo partly drawn) [SPK278, 6-[4'-N-(N'-13-chlorotridecanoylglycyl)spicaminyl-amino]purine] | 92 | 12 | 0.21 | 8 | 
3 | CCCCCCCCCCCCCCC(Cl)C(=O)NCC(=O)NC1C(O)C(O)C(Nc2ncnc3[nH]cnc23)OC1C(O)CO (stereo not drawn) [SPK135, 6-[4'-N-(N'-2-chlorohexadecanoylglycyl)spicaminylamino]purine] | 93 | 24 |  | 4 | 
4 | N#CCCCCCCCCCCCCCCCC(=O)NCC(=O)NC1C(O)C(O)C(Nc2ncnc3[nH]cnc23)OC1C(O)CO (stereo not drawn) [SPK177, 6-[4'-N-(N'-16-cyanohexadecanoylglycyl)-spicaminyl-amino]purine] | 99 | 13.5 |  | 4 | 
5 | CCCCCCCCCCC/C=C/C(=O)NCC(=O)N[C@@H]1[C@@H](O)[C@@H](O)[C@@H](Nc2ncnc3[nH]cnc23)O[C@H]1C(O)CO (stereo partly drawn) [SPK156, 6-[4'-N-(N'-trans-2-tetradecenoylglycyl)spicaminyl-amino]purine] | 92 | 3 |  | 4 | 
6 | CCCCCCCCCCCCCC(O)CC(=O)NCC(=O)NC1C(O)C(O)C(Nc2ncnc3[nH]cnc23)OC1C(O)CO (stereo not drawn) [SPK115, 6-[4'-N-(N'-3-hydroxyhexadecanoylglycyl)-spicaminyl-amino]purine] | 99 | 3 | 0.08 |  | 4
7 | O=C(CCCCCCCCC#Cc1cccs1)NCC(=O)NC1C(O)C(O)C(Nc2ncnc3[nH]cnc23)OC1C(O)CO (stereo not drawn) [SPK262, 6-{4'-N-[N'-11-(2'-thienyl)-10-undecynoylglycyl]spicaminyl-amino}purine] | 99 | 8 | 0.03 | 4 | 
8 | O=C(CCCCCCCCCCCOc1ccccc1)NCC(=O)NC1C(O)C(O)C(Nc2ncnc3[nH]cnc23)OC1C(O)CO (stereo not drawn) [SPK249, 6-[4'-N-(N'-12-phenoxydodecanoylglycyl)-spicaminyl-amino]purine] | 88 | 3 | 0.26 | 4 | 
9 | O=C(CCCCCCCCCCCCCF)NCC(=O)N[C@@H]1[C@@H](O)[C@@H](O)[C@@H](Nc2ncnc3[nH]cnc23)O[C@H]1C(O)CO (stereo partly drawn) [SPK279, 6-[4,-N-(N,-14-fluorotetradecanoylglycyl)spicaminyl-amino]purine] | 93 | 6 | 0.25 | 8 | 
10 | O=C(CCCCCCCCC#Cc1ccoc1)NCC(=O)NC1C(O)C(O)C(Nc2ncnc3[nH]cnc23)OC1C(O)CO (stereo not drawn) [SPK266, 6-{4'-N-[N'-11-(3'-furyl)-10-undecynoylglycyl]spicamynyl-amino}purine] | 97 | 12 | 0.18 | 8 | 
11 | CCCCCCCCC/C=C/C=C/C(=O)NCC(=O)NC1C(O)C(O)C(Nc2ncnc3[nH]cnc23)OC1C(O)CO (stereo not drawn) [SPT241, 6-[4 -N-(N'-trans,trans-2,4-tetradecadienylglycyl)-septaminyl-amino]purine] | 93 | 3 | 0.24 | 8 | 
